Source: the NIST ThermoML archive (doi:10.1016/j.fluid.2016.10.026)
± gives the expanded uncertainty stated by the source.

Details: for surface tension liquid-gas: Drop volume; for kinematic viscosity / speed of sound / mass density: Liquid; for kinematic viscosity: Capillary tube (Ostwald / Ubbelohde) method; for speed of sound: Frequency=3 MHz, Sing-around technique in a fixed-path interferometer; for mass density: Vibrating tube method

CC(=O)c1cccs1 [2-acetylthiophene]
Details	surface tension liquid-gas [mN/m]
278.15 K	45.41 ± 0.5
280.65 K	45.14 ± 0.5
283.15 K	44.83 ± 0.49
285.65 K	44.58 ± 0.49
288.15 K	44.31 ± 0.49
290.65 K	44.01 ± 0.48
293.15 K	43.73 ± 0.48
295.65 K	43.46 ± 0.48
298.15 K	43.16 ± 0.47
300.65 K	42.86 ± 0.47
303.15 K	42.59 ± 0.47
305.65 K	42.31 ± 0.47
308.15 K	42.03 ± 0.46
310.65 K	41.72 ± 0.46
313.15 K	41.43 ± 0.46

Details	kinematic viscosity [m2/s]	mass density [kg/m3]	speed of sound [m/s]
278.15 K, 101 kPa	3.7e-06 ± 4.2e-08	1185.43 ± 0.17	1538.3 ± 0.94
280.65 K, 101 kPa	3.44e-06 ± 3.9e-08	1183.04 ± 0.17	1529.7 ± 0.94
283.15 K, 100 kPa	–	1180.61 ± 0.24	–
283.15 K, 101 kPa	3.21e-06 ± 3.7e-08	1180.64 ± 0.17	1521.2 ± 0.93
283.15 K, 2000 kPa	–	1181.78 ± 0.25	–
283.15 K, 5000 kPa	–	1183.44 ± 0.26	–
283.15 K, 7000 kPa	–	1184.54 ± 0.27	–
283.15 K, 10000 kPa	–	1186.17 ± 0.28	–
283.15 K, 15000 kPa	–	1188.81 ± 0.31	–
283.15 K, 20000 kPa	–	1191.4 ± 0.34	–
283.15 K, 25000 kPa	–	1193.92 ± 0.37	–
283.15 K, 30000 kPa	–	1196.37 ± 0.4	–
283.15 K, 35000 kPa	–	1198.77 ± 0.43	–
283.15 K, 40000 kPa	–	1201.11 ± 0.47	–
283.15 K, 45000 kPa	–	1203.39 ± 0.51	–
285.65 K, 101 kPa	3e-06 ± 3.4e-08	1178.25 ± 0.17	1512.7 ± 0.93
288.15 K, 100 kPa	–	1175.97 ± 0.24	–
288.15 K, 101 kPa	2.81e-06 ± 3.2e-08	1175.86 ± 0.16	1503.9 ± 0.93
288.15 K, 2000 kPa	–	1177.04 ± 0.25	–
288.15 K, 5000 kPa	–	1178.73 ± 0.26	–
288.15 K, 7000 kPa	–	1179.85 ± 0.27	–
288.15 K, 10000 kPa	–	1181.52 ± 0.28	–
288.15 K, 15000 kPa	–	1184.21 ± 0.31	–
288.15 K, 20000 kPa	–	1186.85 ± 0.33	–
288.15 K, 25000 kPa	–	1189.43 ± 0.36	–
288.15 K, 30000 kPa	–	1191.93 ± 0.4	–
288.15 K, 35000 kPa	–	1194.37 ± 0.43	–
288.15 K, 40000 kPa	–	1196.76 ± 0.46	–
288.15 K, 45000 kPa	–	1199.09 ± 0.5	–
290.65 K, 101 kPa	2.64e-06 ± 3e-08	1173.47 ± 0.16	1495 ± 0.93
293.15 K, 100 kPa	–	1171 ± 0.24	–
293.15 K, 101 kPa	2.51e-06 ± 2.9e-08	1171.07 ± 0.16	1486.3 ± 0.93
293.15 K, 2000 kPa	–	1172.28 ± 0.25	–
293.15 K, 5000 kPa	–	1174.02 ± 0.26	–
293.15 K, 7000 kPa	–	1175.16 ± 0.27	–
293.15 K, 10000 kPa	–	1176.85 ± 0.28	–
293.15 K, 15000 kPa	–	1179.61 ± 0.3	–
293.15 K, 20000 kPa	–	1182.3 ± 0.33	–
293.15 K, 25000 kPa	–	1184.93 ± 0.36	–
293.15 K, 30000 kPa	–	1187.48 ± 0.39	–
293.15 K, 35000 kPa	–	1189.98 ± 0.42	–
293.15 K, 40000 kPa	–	1192.41 ± 0.46	–
293.15 K, 45000 kPa	–	1194.78 ± 0.49	–
293.15 K, 50000 kPa	–	1197.1 ± 0.53	–
293.15 K, 55000 kPa	–	1199.35 ± 0.58	–
293.15 K, 60000 kPa	–	1201.56 ± 0.62	–
293.15 K, 65000 kPa	–	1203.71 ± 0.67	–
295.65 K, 101 kPa	2.35e-06 ± 2.7e-08	1168.68 ± 0.16	1477.8 ± 0.92
298.15 K, 100 kPa	–	1166.24 ± 0.24	–
298.15 K, 101 kPa	2.22e-06 ± 2.5e-08	1166.29 ± 0.16	1469 ± 0.92
298.15 K, 2000 kPa	–	1167.52 ± 0.24	–
298.15 K, 5000 kPa	–	1169.28 ± 0.26	–
298.15 K, 7000 kPa	–	1170.46 ± 0.26	–
298.15 K, 10000 kPa	–	1172.2 ± 0.28	–
298.15 K, 15000 kPa	–	1175.02 ± 0.3	–
298.15 K, 20000 kPa	–	1177.77 ± 0.33	–
298.15 K, 25000 kPa	–	1180.44 ± 0.35	–
298.15 K, 30000 kPa	–	1183.06 ± 0.38	–
298.15 K, 35000 kPa	–	1185.59 ± 0.42	–
298.15 K, 40000 kPa	–	1188.08 ± 0.45	–
298.15 K, 45000 kPa	–	1190.5 ± 0.48	–
298.15 K, 50000 kPa	–	1192.87 ± 0.52	–
298.15 K, 55000 kPa	–	1195.17 ± 0.57	–
298.15 K, 60000 kPa	–	1197.42 ± 0.61	–
298.15 K, 65000 kPa	–	1199.61 ± 0.66	–
300.65 K, 101 kPa	2.1e-06 ± 2.4e-08	1163.91 ± 0.16	1460.5 ± 0.92
303.15 K, 100 kPa	–	1161.59 ± 0.24	–
303.15 K, 101 kPa	1.99e-06 ± 2.3e-08	1161.52 ± 0.16	1451.8 ± 0.92
303.15 K, 2000 kPa	–	1162.77 ± 0.24	–
303.15 K, 5000 kPa	–	1164.6 ± 0.25	–
303.15 K, 7000 kPa	–	1165.79 ± 0.26	–
303.15 K, 10000 kPa	–	1167.56 ± 0.27	–
303.15 K, 15000 kPa	–	1170.45 ± 0.3	–
303.15 K, 20000 kPa	–	1173.26 ± 0.32	–
303.15 K, 25000 kPa	–	1175.98 ± 0.35	–
303.15 K, 30000 kPa	–	1178.65 ± 0.38	–
303.15 K, 35000 kPa	–	1181.25 ± 0.41	–
303.15 K, 40000 kPa	–	1183.77 ± 0.44	–
303.15 K, 45000 kPa	–	1186.24 ± 0.48	–
303.15 K, 50000 kPa	–	1188.64 ± 0.51	–
303.15 K, 55000 kPa	–	1190.99 ± 0.56	–
303.15 K, 60000 kPa	–	1193.27 ± 0.6	–
303.15 K, 65000 kPa	–	1195.5 ± 0.64	–
305.65 K, 101 kPa	1.9e-06 ± 2.2e-08	1159.13 ± 0.16	1443.2 ± 0.91
308.15 K, 100 kPa	–	1156.84 ± 0.24	–
308.15 K, 101 kPa	1.81e-06 ± 2.1e-08	1156.74 ± 0.16	1434.8 ± 0.91
308.15 K, 2000 kPa	–	1158.03 ± 0.24	–
308.15 K, 5000 kPa	–	1159.89 ± 0.25	–
308.15 K, 7000 kPa	–	1161.11 ± 0.26	–
308.15 K, 10000 kPa	–	1162.92 ± 0.27	–
308.15 K, 15000 kPa	–	1165.87 ± 0.29	–
308.15 K, 20000 kPa	–	1168.75 ± 0.32	–
308.15 K, 25000 kPa	–	1171.53 ± 0.34	–
308.15 K, 30000 kPa	–	1174.24 ± 0.37	–
308.15 K, 35000 kPa	–	1176.89 ± 0.4	–
308.15 K, 40000 kPa	–	1179.46 ± 0.43	–
308.15 K, 45000 kPa	–	1181.98 ± 0.47	–
308.15 K, 50000 kPa	–	1184.43 ± 0.5	–
308.15 K, 55000 kPa	–	1186.82 ± 0.55	–
308.15 K, 60000 kPa	–	1189.15 ± 0.59	–
308.15 K, 65000 kPa	–	1191.41 ± 0.63	–
310.65 K, 101 kPa	1.72e-06 ± 2e-08	1154.35 ± 0.16	1426.1 ± 0.91
313.15 K, 100 kPa	–	1152.05 ± 0.23	–
313.15 K, 101 kPa	1.65e-06 ± 1.9e-08	1151.96 ± 0.16	1417.5 ± 0.91
313.15 K, 2000 kPa	–	1153.3 ± 0.24	–
313.15 K, 5000 kPa	–	1155.19 ± 0.25	–
313.15 K, 7000 kPa	–	1156.45 ± 0.26	–
313.15 K, 10000 kPa	–	1158.29 ± 0.27	–
313.15 K, 15000 kPa	–	1161.33 ± 0.29	–
313.15 K, 20000 kPa	–	1164.23 ± 0.31	–
